From PubChem BioAssay (NCI)
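Assay format: 96-well plates, 48-hour exposure. The concentration for full growth arrest is given as TGI.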

Experiments:
Assay in all cases: NCI-60 cell line screen, 48 h
MDA-MB-231 breast = system: MDA-MB-231 breast
T-47D breast = system: T-47D breast
SW-620 colon = system: SW-620 colon
HCC-2998 colon = system: HCC-2998 colon
EKVX NSCLC = system: EKVX NSCLC
786-0 renal = system: 786-0 renal
SN12C renal = system: SN12C renal
PC-3 prostate = system: PC-3 prostate
CCRF-CEM leukemia = system: CCRF-CEM leukemia
SF-539 CNS = system: SF-539 CNS
NCI-H460 lung = system: NCI-H460 lung
BT-549 breast = system: BT-549 breast
OVCAR-8 ovarian = system: OVCAR-8 ovarian
SK-MEL-28 melanoma = system: SK-MEL-28 melanoma
SR leukemia = system: SR leukemia
SK-MEL-2 melanoma = system: SK-MEL-2 melanoma
RPMI-8226 leukemia = system: RPMI-8226 leukemia
HL-60(TB) leukemia = system: HL-60(TB) leukemia
NCI-H522 lung = system: NCI-H522 lung
RXF 393 renal = system: RXF 393 renal
NCI-H226 lung = system: NCI-H226 lung
MOLT-4 leukemia = system: MOLT-4 leukemia
LOX IMVI melanoma = system: LOX IMVI melanoma
HCT-116 colon = system: HCT-116 colon
A498 renal = system: A498 renal
ACHN renal = system: ACHN renal
DU-145 prostate = system: DU-145 prostate
IGROV1 ovarian = system: IGROV1 ovarian
COLO 205 colon = system: COLO 205 colon
MDA-MB-435 = system: MDA-MB-435
KM12 colon = system: KM12 colon
SF-295 CNS = system: SF-295 CNS
NCI-H23 lung = system: NCI-H23 lung
TK-10 renal = system: TK-10 renal
MCF7 breast = system: MCF7 breast
OVCAR-5 ovarian = system: OVCAR-5 ovarian
UACC-257 melanoma = system: UACC-257 melanoma
HS 578T breast = system: HS 578T breast
UACC-62 melanoma = system: UACC-62 melanoma
M14 melanoma = system: M14 melanoma
SNB-19 CNS = system: SNB-19 CNS
U251 CNS = system: U251 CNS
SF-268 CNS = system: SF-268 CNS
OVCAR-4 ovarian = system: OVCAR-4 ovarian
CAKI-1 renal = system: CAKI-1 renal
HCT-15 colon = system: HCT-15 colon
MDA-N = system: MDA-N
SK-MEL-5 melanoma = system: SK-MEL-5 melanoma
HOP-92 NSCLC = system: HOP-92 NSCLC
UO-31 renal = system: UO-31 renal
SNB-75 CNS = system: SNB-75 CNS
A549 NSCLC = system: A549 NSCLC
K-562 leukemia = system: K-562 leukemia
HOP-62 NSCLC = system: HOP-62 NSCLC
HT29 colon = system: HT29 colon
NCI/ADR-RES ovarian = system: NCI/ADR-RES ovarian
SK-OV-3 ovarian = system: SK-OV-3 ovarian
MALME-3M melanoma = system: MALME-3M melanoma
OVCAR-3 ovarian = system: OVCAR-3 ovarian

Compound: CC(C)[Si](OC1=C(C(=O)Nc2ccccc2Cl)CCCCC1)(C(C)C)C(C)C
- TGI (MDA-MB-231 breast): > 100 µM
- TGI (T-47D breast): > 100 µM
- TGI (SW-620 colon): > 100 µM
- TGI (HCC-2998 colon): > 100 µM
- TGI (EKVX NSCLC): > 100 µM
- TGI (786-0 renal): > 100 µM
- TGI (SN12C renal): > 100 µM
- TGI (PC-3 prostate): > 100 µM
- TGI (CCRF-CEM leukemia): 12.3 µM
- TGI (SF-539 CNS): > 100 µM
- TGI (NCI-H460 lung): > 100 µM
- TGI (BT-549 breast): > 100 µM
- TGI (OVCAR-8 ovarian): > 100 µM
- TGI (SK-MEL-28 melanoma): > 100 µM
- TGI (SR leukemia): > 100 µM
- TGI (SK-MEL-2 melanoma): > 100 µM
- TGI (RPMI-8226 leukemia): > 100 µM
- TGI (HL-60(TB) leukemia): 13.4 µM
- TGI (NCI-H522 lung): > 100 µM
- TGI (RXF 393 renal): > 100 µM
- TGI (NCI-H226 lung): > 100 µM
- TGI (MOLT-4 leukemia): > 100 µM
- TGI (LOX IMVI melanoma): > 100 µM
- TGI (HCT-116 colon): > 100 µM
- TGI (A498 renal): > 100 µM
- TGI (ACHN renal): > 100 µM
- TGI (DU-145 prostate): > 100 µM
- TGI (IGROV1 ovarian): > 100 µM
- TGI (COLO 205 colon): > 100 µM
- TGI (MDA-MB-435): > 100 µM
- TGI (KM12 colon): > 100 µM
- TGI (SF-295 CNS): > 100 µM
- TGI (NCI-H23 lung): > 100 µM
- TGI (TK-10 renal): > 100 µM
- TGI (MCF7 breast): > 100 µM
- TGI (OVCAR-5 ovarian): > 100 µM
- TGI (UACC-257 melanoma): > 100 µM
- TGI (HS 578T breast): > 100 µM
- TGI (UACC-62 melanoma): > 100 µM
- TGI (M14 melanoma): > 100 µM
- TGI (SNB-19 CNS): > 100 µM
- TGI (U251 CNS): > 100 µM
- TGI (SF-268 CNS): > 100 µM
- TGI (OVCAR-4 ovarian): > 100 µM
- TGI (CAKI-1 renal): > 100 µM
- TGI (HCT-15 colon): > 100 µM
- TGI (MDA-N): > 100 µM
- TGI (SK-MEL-5 melanoma): > 100 µM
- TGI (HOP-92 NSCLC): > 100 µM
- TGI (UO-31 renal): > 100 µM
- TGI (SNB-75 CNS): > 100 µM
- TGI (A549 NSCLC): > 100 µM
- TGI (K-562 leukemia): > 100 µM
- TGI (HOP-62 NSCLC): > 100 µM
- TGI (HT29 colon): > 100 µM
- TGI (NCI/ADR-RES ovarian): > 100 µM
- TGI (SK-OV-3 ovarian): > 100 µM
- TGI (MALME-3M melanoma): > 100 µM
- TGI (OVCAR-3 ovarian): > 100 µM

Compound: NS(=O)(=O)c1ccc(NNc2c3ccccc3nc3ccccc23)cc1
- TGI (MDA-MB-231 breast): 25.9 µM
- TGI (T-47D breast): 20.4 µM
- TGI (SW-620 colon): 16.6 µM
- TGI (HCC-2998 colon): 17.6 µM
- TGI (EKVX NSCLC): 21.1 µM
- TGI (786-0 renal): 17.4 µM
- TGI (SN12C renal): 23.1 µM
- TGI (PC-3 prostate): 16.1 µM
- TGI (CCRF-CEM leukemia): 18.5 µM
- TGI (SF-539 CNS): 17.2 µM
- TGI (NCI-H460 lung): 21.3 µM
- TGI (BT-549 breast): 15.1 µM
- TGI (OVCAR-8 ovarian): 16.6 µM
- TGI (SK-MEL-28 melanoma): 17.1 µM
- TGI (SR leukemia): 21.4 µM
- TGI (SK-MEL-2 melanoma): 18.1 µM
- TGI (RPMI-8226 leukemia): 21.6 µM
- TGI (HL-60(TB) leukemia): 19.9 µM
- TGI (NCI-H522 lung): 16.4 µM
- TGI (RXF 393 renal): 23 µM
- TGI (NCI-H226 lung): 18.8 µM
- TGI (MOLT-4 leukemia): 19.2 µM
- TGI (LOX IMVI melanoma): 14.5 µM
- TGI (HCT-116 colon): 15.5 µM
- TGI (A498 renal): 53.9 µM
- TGI (ACHN renal): 19.9 µM
- TGI (DU-145 prostate): 23.6 µM
- TGI (IGROV1 ovarian): 19.1 µM
- TGI (COLO 205 colon): 13.9 µM
- TGI (MDA-MB-435): 17 µM
- TGI (KM12 colon): 16.5 µM
- TGI (SF-295 CNS): 19.8 µM
- TGI (NCI-H23 lung): 22.1 µM
- TGI (TK-10 renal): 26.4 µM
- TGI (MCF7 breast): 15.8 µM
- TGI (OVCAR-5 ovarian): 17.5 µM
- TGI (UACC-257 melanoma): 18 µM
- TGI (HS 578T breast): 23.8 µM
- TGI (UACC-62 melanoma): 17.2 µM
- TGI (M14 melanoma): 15.9 µM
- TGI (SNB-19 CNS): 25.7 µM
- TGI (U251 CNS): 16.3 µM
- TGI (SF-268 CNS): 17.7 µM
- TGI (OVCAR-4 ovarian): 17.2 µM
- TGI (CAKI-1 renal): 18.9 µM
- TGI (HCT-15 colon): 15.5 µM
- TGI (MDA-N): 17.5 µM
- TGI (SK-MEL-5 melanoma): 17.2 µM
- TGI (HOP-92 NSCLC): 23.4 µM
- TGI (UO-31 renal): 18.1 µM
- TGI (SNB-75 CNS): 21.9 µM
- TGI (A549 NSCLC): 25.6 µM
- TGI (K-562 leukemia): 19.9 µM
- TGI (HOP-62 NSCLC): 22.4 µM
- TGI (HT29 colon): 13.6 µM
- TGI (NCI/ADR-RES ovarian): 24.5 µM
- TGI (SK-OV-3 ovarian): 24.5 µM
- TGI (MALME-3M melanoma): 15.9 µM
- TGI (OVCAR-3 ovarian): 15 µM

Compound: CN(CCCNC(=O)c1cn(C)c2c1ccc1cc(Cl)c(Cl)cc12)CCCNC(=O)c1cn(C)c2c1ccc1cc(Cl)c(Cl)cc12
- TGI (MDA-MB-231 breast): 29.8 µM
- TGI (T-47D breast): 36.2 µM
- TGI (SW-620 colon): 19.1 µM
- TGI (HCC-2998 colon): 18.6 µM
- TGI (EKVX NSCLC): 31.5 µM
- TGI (786-0 renal): 49.4 µM
- TGI (SN12C renal): 32.3 µM
- TGI (PC-3 prostate): 27.4 µM
- TGI (CCRF-CEM leukemia): 38.7 µM
- TGI (SF-539 CNS): 32.1 µM
- TGI (NCI-H460 lung): 29.8 µM
- TGI (BT-549 breast): 33.3 µM
- TGI (OVCAR-8 ovarian): 31.2 µM
- TGI (SK-MEL-28 melanoma): 42 µM
- TGI (SR leukemia): 16.5 µM
- TGI (SK-MEL-2 melanoma): 31.5 µM
- TGI (HL-60(TB) leukemia): 8.32 µM
- TGI (NCI-H522 lung): 31.5 µM
- TGI (RXF 393 renal): 16.7 µM
- TGI (NCI-H226 lung): 47.9 µM
- TGI (MOLT-4 leukemia): 30.3 µM
- TGI (LOX IMVI melanoma): > 43.3 µM
- TGI (HCT-116 colon): 31.2 µM
- TGI (A498 renal): 28 µM
- TGI (ACHN renal): 27.2 µM
- TGI (DU-145 prostate): 31.6 µM
- TGI (IGROV1 ovarian): 25.5 µM
- TGI (COLO 205 colon): 9.58 µM
- TGI (MDA-MB-435): 26.4 µM
- TGI (KM12 colon): 20.8 µM
- TGI (SF-295 CNS): 38.3 µM
- TGI (NCI-H23 lung): 31.4 µM
- TGI (TK-10 renal): 37.4 µM
- TGI (MCF7 breast): 19.6 µM
- TGI (OVCAR-5 ovarian): 31.2 µM
- TGI (UACC-257 melanoma): 52.4 µM
- TGI (HS 578T breast): 27.6 µM
- TGI (UACC-62 melanoma): 31.7 µM
- TGI (M14 melanoma): 27.5 µM
- TGI (SNB-19 CNS): 17.9 µM
- TGI (U251 CNS): 11.4 µM
- TGI (SF-268 CNS): 34 µM
- TGI (OVCAR-4 ovarian): 25.3 µM
- TGI (CAKI-1 renal): 27.1 µM
- TGI (HCT-15 colon): 27.5 µM
- TGI (MDA-N): 36 µM
- TGI (SK-MEL-5 melanoma): 28.7 µM
- TGI (HOP-92 NSCLC): 33.4 µM
- TGI (UO-31 renal): 39.6 µM
- TGI (SNB-75 CNS): 25.6 µM
- TGI (A549 NSCLC): 32.4 µM
- TGI (K-562 leukemia): 26.2 µM
- TGI (HOP-62 NSCLC): > 57.7 µM
- TGI (HT29 colon): 29.4 µM
- TGI (NCI/ADR-RES ovarian): 33.1 µM
- TGI (SK-OV-3 ovarian): 30.7 µM
- TGI (MALME-3M melanoma): 31.8 µM
- TGI (OVCAR-3 ovarian): > 54.9 µM
